Columns and labels:
Format in all cases: cell-based
[1] = test system: A121 (Human ovarian); test: cytotoxic effect on A121 tumour cell line (comparison with taxol); conditions: exposure time 72 h, RPMI 1640 + 20 mM HEPES + 2 mM L-glutamine
Description: (§1) The products of the present invention were screened for their cytotoxic effect on different tumour cell lines, comparing their action with that of taxol.
(§2) Standard conditions: substrate RPMI 1640 + 20 mM HEPES + 2 mM Lglutamine.

[2] = test system: A549 (Human NSCLC); test: cytotoxic effect on A549 tumour cell line (comparison with taxol); conditions: exposure time 72 h, RPMI 1640 + 20 mM HEPES + 2 mM L-glutamine
Description: as §1, §2

[3] = test system: MCF7 (Human breast); test: cytotoxic effect on MCF7 tumour cell line (comparison with taxol); conditions: exposure time 72 h, RPMI 1640 + 20 mM HEPES + 2 mM L-glutamine
Description: as §1, §2

[4] = test system: HT-29 (Human colon); test: cytotoxic effect on HT-29 tumour cell line (comparison with taxol); conditions: exposure time 72 h, RPMI 1640 + 20 mM HEPES + 2 mM L-glutamine
Description: as §1, §2

[5] = test system: L1210 (murine leukemia); test: cytotoxic effect on L1210 tumour cell line (comparison with taxol); conditions: exposure time 48 h, RPMI 1640 + 20 mM HEPES + 2 mM L-glutamine
Description: as §1, §2

[6] = test system: MCF7-ADR (resistant); test: cytotoxic effect on MCF7-ADR resistant tumour cell line (comparison with taxol); conditions: exposure time 72 h, RPMI 1640 + 20 mM HEPES + 2 mM L-glutamine
Description: as §1, §2

13-[(2R, 3S)-3-phenyl-2-hydroxy-3-tert-butoxycarbonylamino-propanoyl]-10-deacetyl-11,12-dihydrobaccatine III [1b]
IC50 [1]: 1.6 ± 0.2 nM
IC50 [2]: 2.1 ± 0.3 nM
IC50 [3]: 0.8 ± 0.2 nM
IC50 [4]: 3.6 ± 0.4 nM
IC50 [5]: 32 ± 0.1 nM
IC50 [6]: 128 ± 6.2 nM

CC(=O)O[C@@]12CO[C@@H]1C[C@H](O)[C@@]1(C)C(=O)[C@@H](O)C3=C(C)[C@@H](OC(=O)[C@H](O)[C@@H](NC(=O)OC(C)(C)C)c4ccccc4)C[C@@](O)([C@@H](OC(=O)c4ccccc4)[C@H]21)C3(C)C [1a, 13-[(2R, 3S)-3-phenyl-2-hydroxy-3-tert-butoxycarbonylamino-propanoyl]-10-epi-10-deacetylbaccatine III]
IC50 [1]: 2.8 ± 0.3 nM
IC50 [2]: 6.9 ± 0.3 nM
IC50 [3]: 2.2 ± 0.2 nM
IC50 [4]: 3.4 ± 0.1 nM
IC50 ([5]; Mus musculus): 46 ± 2.1 nM
IC50 ([6]; Homo sapiens, NCI/ADR-RES): 130 ± 2.2 nM

CC(=O)O[C@@]1([C@@H]2C(C)=C(O)C(=O)C3=C(C)[C@@H](OC(=O)[C@H](O)[C@@H](NC(=O)OC(C)(C)C)c4ccccc4)C[C@@](O)([C@H]2OC(=O)c2ccccc2)C3(C)C)CO[C@@H]1CCO [5a, 13-[(2R, 3S)-3-phenyl-2-hydroxy-3-tert-butoxy-carbonylamino-propanoyl]-C-seco-10-deacetylbaccatine III]
IC50 [1]: 1.9 nM
IC50 [2]: 3.3 nM
IC50 [3]: 1.5 nM
IC50 [4]: 3.2 nM
IC50 ([5]; Mus musculus): 35 ± 1.2 nM
IC50 ([6]; Homo sapiens, NCI/ADR-RES): 31.3 nM

— patent publication US5756776A, “Semi-synthetic taxanes with anti-tumoural activity” (Indena S.p.A., priority 1994, dated 1998)
